Data: ChEMBL document CHEMBL1201862, “PubChem BioAssay data set” (2004)
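Exposure lasted 48 hours, with cells grown in 96-well plates and compounds tested at five concentrations. GI50 is the concentration that inhibits growth by half.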 Activity calls are given as the source filed them. Cut-off read from the data, not from the text of the source: active = GI50 up to about 1.1 µM and inactive = higher.

Key:
Test in all cases: NCI-60 cell line screen, 48 h
[1] = test system: K562
[2] = test system: SK-OV-3
[3] = test system: SNB-19
[4] = test system: HOP-92
[5] = test system: M14
[6] = test system: SNB-75
[7] = test system: CCRF-CEM
[8] = test system: RXF 631
[9] = test system: SNB-78
[10] = test system: HCT-116
[11] = test system: DLD-1
[12] = test system: ACHN
[13] = test system: HT-29
[14] = test system: OVCAR-3
[15] = test system: HCC 2998
[16] = test system: SK-MEL-2
[17] = test system: NCI-H23
[18] = test system: SF-539
[19] = test system: SK-MEL-28
[20] = test system: EKVX
[21] = test system: NCI-H522
[22] = test system: HOP-18
[23] = test system: TK-10
[24] = test system: UO-31
[25] = test system: NCI-H460
[26] = test system: SW-620
[27] = test system: UACC-62
[28] = test system: CAKI-1
[29] = test system: DMS-273
[30] = test system: MOLT-4
[31] = test system: RPMI-8226
[32] = test system: SF-268
[33] = test system: SK-MEL-5
[34] = test system: OVCAR-8
[35] = test system: OVCAR-4
[36] = test system: A549
[37] = test system: SR
[38] = test system: HCT-15
[39] = test system: OVCAR-5
[40] = test system: HL-60
[41] = test system: HOP-62
[42] = test system: UACC-257
[43] = test system: M19-MEL
[44] = test system: 786-0
[45] = test system: KM-20L2
[46] = test system: XF498
[47] = test system: Malme-3M
[48] = test system: LOX IMVI
[49] = test system: SF-295
[50] = test system: U-251
[51] = test system: RXF 393
[52] = test system: IGROV-1
[53] = test system: DMS-114
[54] = test system: SN12C
[55] = test system: LXFL 529
[56] = test system: COLO 205
[57] = test system: A498
[58] = test system: KM12

## C=C1C(=O)C23[C@H](O)C1CC[C@H]2[C@]12COC3(O)[C@@H](O)[C@@H]1C(C)(C)CC[C@@H]2O
[1]
  GI50: 3.09 µM (inactive)
[2]
  GI50: 17.1 µM (inactive)
[3]
  GI50: 18.5 µM (inactive)
[4]
  GI50: 3.95 µM (inactive)
[5]
  GI50: 5.57 µM (inactive)
[6]
  GI50: 20.4 µM (inactive)
[7]
  GI50: 3.03 µM (inactive)
[8]
  GI50: 10.1 µM (inactive)
[9]
  GI50: 3.44 µM (inactive)
[10]
  GI50: 7.28 µM (inactive)
[11]
  GI50: 11.3 µM (inactive)
[12]
  GI50: 16.1 µM (inactive)
[13]
  GI50: 14.4 µM (inactive)
[14]
  GI50: 14.8 µM (inactive)
[15]
  GI50: 15.8 µM (inactive)
[16]
  GI50: 2.28 µM (inactive)
[17]
  GI50: 13.5 µM (inactive)
[18]
  GI50: 6.98 µM (inactive)
[19]
  GI50: 2.72 µM (inactive)
[20]
  GI50: 19.7 µM (inactive)
[21]
  GI50: 0.552 µM (active)
[22]
  GI50: 12.2 µM (inactive)
[23]
  GI50: 17.2 µM (inactive)
[24]
  GI50: 15.4 µM (inactive)
[25]
  GI50: 16 µM (inactive)
[26]
  GI50: 1.84 µM (inactive)
[27]
  GI50: 10.9 µM (inactive)
[28]
  GI50: 1.98 µM (inactive)
[29]
  GI50: 13.6 µM (inactive)
[30]
  GI50: 3.27 µM (inactive)
[31]
  GI50: 4.08 µM (inactive)
[32]
  GI50: 4.76 µM (inactive)
[33]
  GI50: 15.1 µM (inactive)
[34]
  GI50: 13.4 µM (inactive)
[35]
  GI50: 18 µM (inactive)
[36]
  GI50: 23.3 µM (inactive)
[37]
  GI50: 1.34 µM (inactive)
[38]
  GI50: 3.33 µM
[39]
  GI50: 18.5 µM (inactive)
[40]
  GI50: 4.27 µM (inactive)
[41]
  GI50: 20.6 µM (inactive)
[42]
  GI50: 15.5 µM (inactive)
[43]
  GI50: 12.9 µM (inactive)
[44]
  GI50: 11 µM (inactive)
[45]
  GI50: 13.7 µM (inactive)
[46]
  GI50: 3.46 µM (inactive)
[47]
  GI50: 2.49 µM (inactive)
[48]
  GI50: 14.2 µM (inactive)
[49]
  GI50: 17.6 µM (inactive)
[50]
  GI50: 6.04 µM (inactive)
[51]
  GI50: 2.57 µM (inactive)
[52]
  GI50: 21.4 µM (inactive)
[53]
  GI50: 7.38 µM (inactive)
[54]
  GI50: 20.1 µM (inactive)
[55]
  GI50: 1.27 µM (inactive)
[56]
  GI50: 0.452 µM (active)
[57]
  GI50: 9.1 µM (inactive)
[58]
  GI50: 16.9 µM (inactive)
